# According to ChEMBL document CHEMBL1201862, “PubChem BioAssay data set” (2004):
# Calls of active or inactive are those of the source.
# Experiments:
# [1] = molecular target: T1, Voltage-gated N-type calcium channel alpha-1B subunit/Amyloid beta A4 precursor protein-binding family A member 1 (Homo sapiens, UniProt Q00975+Q02410); type: protein assay
# [2] = molecular target: T1, Voltage-gated N-type calcium channel alpha-1B subunit/Amyloid beta A4 precursor protein-binding family A member 1; type: protein assay; remark: listed apart in the source
# [3] = molecular target: T2, Mannose-6-phosphate isomerase (Homo sapiens, UniProt P34949); assay: human PMI inhibitors, high substrate, primary screen, biochemical, fluorescence intensity, high mannose 6-phosphate (AID 1220)
# T2 sequence (P34949 whole entry): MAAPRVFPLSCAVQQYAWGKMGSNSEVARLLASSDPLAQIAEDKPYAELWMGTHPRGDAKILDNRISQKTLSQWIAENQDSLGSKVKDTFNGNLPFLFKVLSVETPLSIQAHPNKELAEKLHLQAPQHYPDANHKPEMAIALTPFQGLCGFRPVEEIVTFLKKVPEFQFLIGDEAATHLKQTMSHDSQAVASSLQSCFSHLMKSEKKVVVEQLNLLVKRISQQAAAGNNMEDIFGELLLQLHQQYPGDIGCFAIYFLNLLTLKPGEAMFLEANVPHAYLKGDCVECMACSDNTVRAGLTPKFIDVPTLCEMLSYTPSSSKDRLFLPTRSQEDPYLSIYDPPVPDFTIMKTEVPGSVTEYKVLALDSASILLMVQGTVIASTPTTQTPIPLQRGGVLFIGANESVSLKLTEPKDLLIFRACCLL
# [4] = molecular target: T2, Mannose-6-phosphate isomerase; assay: inhibitors of human PMI, primary screen, biochemical, fluorescence intensity, coupled assay (AID 1209)
# NADPH oxidase 1 = NADPH oxidase 1 (Homo sapiens, UniProt Q9Y5S8); type: functional, cell-based;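 also: Cell-based assay with luminescence read-out, IC50 derived from inhibitor dose-response curves; intracellular ROS from endogenous NOX1 in intact HT29 colon cancer cells; potency of inhibitors that lower the ROS luminescence signal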
# [5] = molecular target: T3, E3 ubiquitin-protein ligase XIAP (Homo sapiens, UniProt P98170); assay: Counter Screen using XIAP-Bir3 for Chemical Antagonists of Bir1/2 domains of IAP-family anti-apoptotic proteins. [Related pubchem assays (depositor defined):AID1018, AID1449, AID1514, AID1638, AID1749, AID1750, AID488957, AID488963]
# T3 sequence (P98170 whole entry): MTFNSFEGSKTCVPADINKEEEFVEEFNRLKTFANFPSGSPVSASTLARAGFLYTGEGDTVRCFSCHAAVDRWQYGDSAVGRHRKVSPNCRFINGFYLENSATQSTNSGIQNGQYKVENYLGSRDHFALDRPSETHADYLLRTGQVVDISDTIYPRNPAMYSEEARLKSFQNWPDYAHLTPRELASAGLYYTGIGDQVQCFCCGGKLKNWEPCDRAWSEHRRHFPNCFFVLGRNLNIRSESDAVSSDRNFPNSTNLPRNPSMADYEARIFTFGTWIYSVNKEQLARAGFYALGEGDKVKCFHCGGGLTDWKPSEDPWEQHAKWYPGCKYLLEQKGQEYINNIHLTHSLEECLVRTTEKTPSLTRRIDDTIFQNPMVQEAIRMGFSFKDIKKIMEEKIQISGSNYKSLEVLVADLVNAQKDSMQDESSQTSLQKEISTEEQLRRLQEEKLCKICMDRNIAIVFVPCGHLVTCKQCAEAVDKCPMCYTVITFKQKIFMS
# [6] = molecular target: T3, E3 ubiquitin-protein ligase XIAP; assay: XIAP antagonists, biochemical, IAP family, fluorescence polarization (AID 1018); type: functional
# Aspartyl aminopeptidase = molecular target: T4, Aspartyl aminopeptidase (Plasmodium falciparum 3D7, UniProt Q8I2J3); assay: Counterscreen for inhibitors of M1 and M17 aminopeptidases: QFRET-based biochemical high throughput dose response assay for inhibitors of the Plasmodium falciparum M18 Aspartyl Aminopeptidase (PFM18AAP). [Related PubChem assays: 1619 (Screening assay (M17LAP inhibitors).), 1445 (Screening assay (M1AAP inhibitors).)]
# T4 sequence (Q8I2J3 whole entry): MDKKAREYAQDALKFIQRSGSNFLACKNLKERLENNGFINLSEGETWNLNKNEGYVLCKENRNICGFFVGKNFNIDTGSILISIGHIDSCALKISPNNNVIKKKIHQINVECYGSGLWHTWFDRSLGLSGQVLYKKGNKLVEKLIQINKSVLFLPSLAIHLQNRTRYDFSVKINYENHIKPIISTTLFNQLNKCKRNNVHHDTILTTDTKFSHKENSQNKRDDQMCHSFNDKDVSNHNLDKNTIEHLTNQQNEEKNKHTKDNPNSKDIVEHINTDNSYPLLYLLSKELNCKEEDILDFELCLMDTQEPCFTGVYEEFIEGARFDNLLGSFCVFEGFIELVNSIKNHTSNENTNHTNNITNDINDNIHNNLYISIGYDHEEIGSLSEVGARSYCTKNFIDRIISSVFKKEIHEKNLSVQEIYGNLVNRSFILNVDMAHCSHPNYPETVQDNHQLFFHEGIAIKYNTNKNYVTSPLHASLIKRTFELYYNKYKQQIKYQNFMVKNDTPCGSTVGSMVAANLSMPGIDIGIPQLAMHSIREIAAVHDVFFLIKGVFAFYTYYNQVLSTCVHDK
# Aminopeptidase N = molecular target: T5, Aminopeptidase N (Plasmodium falciparum FcB1/Columbia, UniProt O96935); assay: P. falciparum M1AAP inhibitors, biochemical, fluorogenic H-Leu-NHMec substrate, 1536-well (AID 1445); parameters: species or system Plasmodium falciparum 3D7, 3D7
# T5 sequence (O96935 whole entry): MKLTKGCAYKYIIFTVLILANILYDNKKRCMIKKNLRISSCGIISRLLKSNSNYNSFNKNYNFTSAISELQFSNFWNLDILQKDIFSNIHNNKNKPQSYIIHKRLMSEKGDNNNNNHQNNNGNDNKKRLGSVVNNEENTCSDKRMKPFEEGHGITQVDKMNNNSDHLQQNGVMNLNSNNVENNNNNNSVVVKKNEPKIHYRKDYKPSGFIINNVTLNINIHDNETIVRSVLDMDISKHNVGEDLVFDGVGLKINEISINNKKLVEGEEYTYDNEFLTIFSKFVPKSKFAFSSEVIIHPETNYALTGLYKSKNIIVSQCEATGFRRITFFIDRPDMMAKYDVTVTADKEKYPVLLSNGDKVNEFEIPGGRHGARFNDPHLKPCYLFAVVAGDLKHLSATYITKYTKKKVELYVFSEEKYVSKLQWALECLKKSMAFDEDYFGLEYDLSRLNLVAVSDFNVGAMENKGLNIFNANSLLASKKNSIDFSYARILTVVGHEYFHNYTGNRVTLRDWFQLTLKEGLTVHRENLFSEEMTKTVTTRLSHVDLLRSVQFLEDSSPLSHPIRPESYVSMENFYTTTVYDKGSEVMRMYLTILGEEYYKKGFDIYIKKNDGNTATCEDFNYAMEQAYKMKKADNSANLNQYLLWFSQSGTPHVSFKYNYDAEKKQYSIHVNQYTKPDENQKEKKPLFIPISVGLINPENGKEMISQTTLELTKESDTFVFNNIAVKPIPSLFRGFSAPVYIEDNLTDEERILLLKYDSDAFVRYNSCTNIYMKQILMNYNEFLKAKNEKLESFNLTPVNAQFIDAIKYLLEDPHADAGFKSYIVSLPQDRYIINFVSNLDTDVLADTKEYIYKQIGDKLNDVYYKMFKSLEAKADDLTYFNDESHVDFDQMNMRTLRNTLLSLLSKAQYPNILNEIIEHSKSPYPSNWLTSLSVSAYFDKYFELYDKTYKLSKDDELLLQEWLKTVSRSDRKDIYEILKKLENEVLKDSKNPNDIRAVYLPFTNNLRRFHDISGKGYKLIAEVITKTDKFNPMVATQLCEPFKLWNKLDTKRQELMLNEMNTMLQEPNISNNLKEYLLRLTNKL
# Procathepsin L = Procathepsin L (Homo sapiens, UniProt P07711); assay: cathepsin L inhibitors, dose response, counter-screen for M1/M17 aminopeptidase inhibitor project, biochemical, QFRET, 1536-well (AID 2214)
# Chain of Procathepsin L (P07711 whole entry): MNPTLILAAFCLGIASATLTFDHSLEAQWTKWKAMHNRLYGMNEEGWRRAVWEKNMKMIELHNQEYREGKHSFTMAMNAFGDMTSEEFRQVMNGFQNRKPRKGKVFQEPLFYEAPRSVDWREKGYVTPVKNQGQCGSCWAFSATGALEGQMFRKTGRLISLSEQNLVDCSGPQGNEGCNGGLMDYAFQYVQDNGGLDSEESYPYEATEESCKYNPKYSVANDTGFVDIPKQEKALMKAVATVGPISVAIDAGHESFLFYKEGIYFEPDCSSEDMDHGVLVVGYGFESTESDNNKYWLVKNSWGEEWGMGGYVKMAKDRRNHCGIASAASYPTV
# Mucolipin-3 = Mucolipin-3 (Homo sapiens, UniProt Q8TDD5); assay: Dose response cell-based high-throughput screening assay for agonists of the transient receptor potential channel ML3 (TRPML3). [Related pubchem assays: 1526, 1424, 1448 ]; type: functional
# Chain of Mucolipin-3 (Q8TDD5 whole entry): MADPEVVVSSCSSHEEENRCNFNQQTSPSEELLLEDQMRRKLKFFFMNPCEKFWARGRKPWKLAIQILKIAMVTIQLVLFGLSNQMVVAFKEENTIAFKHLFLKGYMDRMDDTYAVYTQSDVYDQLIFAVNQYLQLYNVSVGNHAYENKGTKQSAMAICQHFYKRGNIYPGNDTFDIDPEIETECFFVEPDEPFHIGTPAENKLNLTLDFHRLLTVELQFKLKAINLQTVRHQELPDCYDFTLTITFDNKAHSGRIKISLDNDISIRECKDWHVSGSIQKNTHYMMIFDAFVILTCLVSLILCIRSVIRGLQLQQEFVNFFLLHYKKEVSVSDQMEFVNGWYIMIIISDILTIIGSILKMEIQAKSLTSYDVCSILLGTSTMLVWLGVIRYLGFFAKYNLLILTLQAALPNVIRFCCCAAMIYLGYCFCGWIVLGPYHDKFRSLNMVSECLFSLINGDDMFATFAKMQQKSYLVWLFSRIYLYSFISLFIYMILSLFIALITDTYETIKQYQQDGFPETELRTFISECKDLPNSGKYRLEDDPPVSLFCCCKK
# Ion channel NompC = Ion channel NompC (Danio rerio, UniProt Q7T1G6); assay: Fluorescence counterscreen assay for TRPML3 agonists: dose response cell-based high-throughput screening assay to identify agonists of the transient receptor potential channel N1 (TRPN1). [Related pubchem assays: 1526, 1424, 1448 ]; type: functional
# [7] = growth suppression of beta-catenin-knockout colon cells, dose response, cell-based, HCT116, human colon tumor (AID 1045); type: functional;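 also: HCT116 colon tumor cells with beta catenin knocked out; cells exposed to compound for 60 hours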
# [8] = molecular target: Sphingosine 1-phosphate receptor 3 (Homo sapiens, UniProt Q99500); assay: Dose response cell-based high throughput screening assay for antagonists of the Sphingosine 1-Phosphate Receptor 3 (S1P3). [Related pubchem assays: 1429, 485 ]; type: functional
# [9] = molecular target: 5-hydroxytryptamine receptor 1E (Homo sapiens, UniProt P28566); assay: Counterscreen assay for S1P3 antagonists: Dose response cell-based high throughput screening assay to identify antagonists of the 5-Hydroxytryptamine Receptor Subtype 1E (5HT1E). [Related pubchem assays: 1429, 485 ]; type: functional
# Chain of 5-hydroxytryptamine receptor 1E (P28566 whole entry): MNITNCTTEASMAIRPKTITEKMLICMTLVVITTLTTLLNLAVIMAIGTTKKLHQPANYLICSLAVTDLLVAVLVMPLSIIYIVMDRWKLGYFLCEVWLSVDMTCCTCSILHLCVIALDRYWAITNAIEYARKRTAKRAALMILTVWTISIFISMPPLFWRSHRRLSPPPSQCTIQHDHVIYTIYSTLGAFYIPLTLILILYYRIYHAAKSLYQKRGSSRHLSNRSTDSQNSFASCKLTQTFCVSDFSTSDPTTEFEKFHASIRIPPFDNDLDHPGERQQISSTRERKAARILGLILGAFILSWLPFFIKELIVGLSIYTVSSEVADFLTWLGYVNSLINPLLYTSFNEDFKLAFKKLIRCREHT
# [10] = growth suppression of PTEN-null colon cells, dose response, cell-based, HCT116 PTEN knockout (AID 1047); type: functional;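 also: HCT116 colon tumor cells with PTEN knocked out; cells exposed to compound for 60 hours before readout; potency for loss of cell viability measured by luminescence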
# [11] = molecular target: Sphingosine 1-phosphate receptor 2 (Homo sapiens, UniProt O95136); assay: Dose Response Cell Based Assay for Agonists of the S1P2 Receptor of Purchased Analogues. [Related pubchem assays: 729, 843, 854, 736 ]; type: functional
# Streptokinase A = molecular target: T6, Streptokinase A (Streptococcus pyogenes serotype M1, UniProt P10520); assay: Absorbance Microorganism-Based Dose Response Follow up to Identify Inhibitors of Streptokinase Expression. [Related pubchem assays: 1677 (Project Summary), 1915, 1914, 1902 (Retest at Dose), 1900 (Counter Screen), 1662 (Primary HTS)]; type: functional, Streptococcus pyogenes M1 GAS
# T6 sequence (P10520 whole entry): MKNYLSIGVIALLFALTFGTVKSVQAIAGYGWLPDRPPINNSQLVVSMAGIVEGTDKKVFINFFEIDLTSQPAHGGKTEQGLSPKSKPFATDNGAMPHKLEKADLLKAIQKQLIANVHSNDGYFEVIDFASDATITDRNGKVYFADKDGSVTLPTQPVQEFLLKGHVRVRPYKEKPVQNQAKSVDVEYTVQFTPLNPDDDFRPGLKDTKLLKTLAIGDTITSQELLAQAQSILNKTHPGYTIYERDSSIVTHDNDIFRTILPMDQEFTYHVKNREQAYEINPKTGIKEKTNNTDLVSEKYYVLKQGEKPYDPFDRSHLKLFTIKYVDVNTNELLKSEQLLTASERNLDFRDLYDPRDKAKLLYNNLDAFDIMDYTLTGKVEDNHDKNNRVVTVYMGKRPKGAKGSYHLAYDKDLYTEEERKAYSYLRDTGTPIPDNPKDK
# Streptococcus = assay: Streptococcus pyogenes growth inhibition counter-screen, dose response, counter-screen for streptokinase expression inhibitor project, luminescence, BacTiter-Glo, strain UMAA2166 (AID 2477); type: functional, organism-based
# HeLa = assay: Cytotoxicity counterscreen assay for transcriptional activators of heat shock protein 70 (Hsp70). [Related pubchem assays: 1203, 1252 ]; type: functional; details: Homo sapiens;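 also: cells exposed to compound for 16 hours before readout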
# [12] = molecular target: Heat shock protein HSP 90-alpha (Homo sapiens, UniProt P07900); type: functional, organism-based
# [13] = inhibitors of intracellular T. cruzi replication, confirmation, NIH3T3 host cells, beta-gal luminescence (AID 2044); type: functional, cell-based;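 also: intracellular parasites grown in NIH/3T3 mouse fibroblasts as host cells; luminescent beta-galactosidase reporter signal from transgenic T. cruzi replicating inside host cells; inhibitors lower the luminescence signal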
# [14] = HEp-2 cell cytotoxicity, dose response, cytotoxicity control for RSV inhibitor project, HTS (AID 2410); type: functional; details: human respiratory syncytial virus
# [15] = cytotoxicity toward NIH3T3 fibroblasts, dose response, counter-screen, cell-based, ATP luminescence, mouse fibroblasts (AID 2010); type: functional;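 also: cells exposed to compound for about 90 hours before reading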
# INS1 = assay: beta cell apoptosis inhibitors, cytokine rescue, dose response, luminescence, retest (AID 449756); type: functional, cell-based; details: Rattus norvegicus;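 also: cell death triggered by IL-1 beta plus TNF-alpha plus IFN-gamma mixture; protective hits raise ATP signal compared with cytokine alone wells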
# Leucine aminopeptidase = molecular target: T7, Leucine aminopeptidase (Plasmodium falciparum 3D7, UniProt Q8IL11); assay: P. falciparum M17LAP inhibitors, primary screen, biochemical, fluorogenic H-Leu-NHMec substrate, 1536-well (AID 1619); type: functional
# T7 sequence (Q8IL11 whole entry): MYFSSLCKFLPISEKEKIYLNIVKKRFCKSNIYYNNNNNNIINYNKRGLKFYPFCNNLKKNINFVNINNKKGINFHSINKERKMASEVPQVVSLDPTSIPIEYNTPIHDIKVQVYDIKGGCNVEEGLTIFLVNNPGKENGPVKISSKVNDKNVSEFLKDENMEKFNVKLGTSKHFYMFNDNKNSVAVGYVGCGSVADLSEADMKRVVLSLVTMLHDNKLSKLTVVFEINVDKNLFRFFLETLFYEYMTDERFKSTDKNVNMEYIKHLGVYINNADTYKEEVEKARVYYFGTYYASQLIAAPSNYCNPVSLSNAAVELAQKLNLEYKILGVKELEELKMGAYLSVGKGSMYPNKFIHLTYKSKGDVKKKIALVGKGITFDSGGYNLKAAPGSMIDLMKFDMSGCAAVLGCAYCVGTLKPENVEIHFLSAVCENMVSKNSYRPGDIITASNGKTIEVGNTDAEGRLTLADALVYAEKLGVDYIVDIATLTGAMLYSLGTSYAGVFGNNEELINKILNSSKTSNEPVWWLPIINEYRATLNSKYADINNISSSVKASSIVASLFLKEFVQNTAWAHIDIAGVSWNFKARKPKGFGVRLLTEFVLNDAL
# [16] = enhancers of respiration in Yfh1-depleted yeast, dose response, Friedreich's ataxia, plus single-dose screen (AID 1465); type: functional;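 also: yeast depleted of Yfh1p frataxin homolog grown on glycerol needing respiration; WST-1 tetrazolium dye reduction as measure of cellular dehydrogenase metabolic activity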
# T1 sequence (Q00975 whole entry): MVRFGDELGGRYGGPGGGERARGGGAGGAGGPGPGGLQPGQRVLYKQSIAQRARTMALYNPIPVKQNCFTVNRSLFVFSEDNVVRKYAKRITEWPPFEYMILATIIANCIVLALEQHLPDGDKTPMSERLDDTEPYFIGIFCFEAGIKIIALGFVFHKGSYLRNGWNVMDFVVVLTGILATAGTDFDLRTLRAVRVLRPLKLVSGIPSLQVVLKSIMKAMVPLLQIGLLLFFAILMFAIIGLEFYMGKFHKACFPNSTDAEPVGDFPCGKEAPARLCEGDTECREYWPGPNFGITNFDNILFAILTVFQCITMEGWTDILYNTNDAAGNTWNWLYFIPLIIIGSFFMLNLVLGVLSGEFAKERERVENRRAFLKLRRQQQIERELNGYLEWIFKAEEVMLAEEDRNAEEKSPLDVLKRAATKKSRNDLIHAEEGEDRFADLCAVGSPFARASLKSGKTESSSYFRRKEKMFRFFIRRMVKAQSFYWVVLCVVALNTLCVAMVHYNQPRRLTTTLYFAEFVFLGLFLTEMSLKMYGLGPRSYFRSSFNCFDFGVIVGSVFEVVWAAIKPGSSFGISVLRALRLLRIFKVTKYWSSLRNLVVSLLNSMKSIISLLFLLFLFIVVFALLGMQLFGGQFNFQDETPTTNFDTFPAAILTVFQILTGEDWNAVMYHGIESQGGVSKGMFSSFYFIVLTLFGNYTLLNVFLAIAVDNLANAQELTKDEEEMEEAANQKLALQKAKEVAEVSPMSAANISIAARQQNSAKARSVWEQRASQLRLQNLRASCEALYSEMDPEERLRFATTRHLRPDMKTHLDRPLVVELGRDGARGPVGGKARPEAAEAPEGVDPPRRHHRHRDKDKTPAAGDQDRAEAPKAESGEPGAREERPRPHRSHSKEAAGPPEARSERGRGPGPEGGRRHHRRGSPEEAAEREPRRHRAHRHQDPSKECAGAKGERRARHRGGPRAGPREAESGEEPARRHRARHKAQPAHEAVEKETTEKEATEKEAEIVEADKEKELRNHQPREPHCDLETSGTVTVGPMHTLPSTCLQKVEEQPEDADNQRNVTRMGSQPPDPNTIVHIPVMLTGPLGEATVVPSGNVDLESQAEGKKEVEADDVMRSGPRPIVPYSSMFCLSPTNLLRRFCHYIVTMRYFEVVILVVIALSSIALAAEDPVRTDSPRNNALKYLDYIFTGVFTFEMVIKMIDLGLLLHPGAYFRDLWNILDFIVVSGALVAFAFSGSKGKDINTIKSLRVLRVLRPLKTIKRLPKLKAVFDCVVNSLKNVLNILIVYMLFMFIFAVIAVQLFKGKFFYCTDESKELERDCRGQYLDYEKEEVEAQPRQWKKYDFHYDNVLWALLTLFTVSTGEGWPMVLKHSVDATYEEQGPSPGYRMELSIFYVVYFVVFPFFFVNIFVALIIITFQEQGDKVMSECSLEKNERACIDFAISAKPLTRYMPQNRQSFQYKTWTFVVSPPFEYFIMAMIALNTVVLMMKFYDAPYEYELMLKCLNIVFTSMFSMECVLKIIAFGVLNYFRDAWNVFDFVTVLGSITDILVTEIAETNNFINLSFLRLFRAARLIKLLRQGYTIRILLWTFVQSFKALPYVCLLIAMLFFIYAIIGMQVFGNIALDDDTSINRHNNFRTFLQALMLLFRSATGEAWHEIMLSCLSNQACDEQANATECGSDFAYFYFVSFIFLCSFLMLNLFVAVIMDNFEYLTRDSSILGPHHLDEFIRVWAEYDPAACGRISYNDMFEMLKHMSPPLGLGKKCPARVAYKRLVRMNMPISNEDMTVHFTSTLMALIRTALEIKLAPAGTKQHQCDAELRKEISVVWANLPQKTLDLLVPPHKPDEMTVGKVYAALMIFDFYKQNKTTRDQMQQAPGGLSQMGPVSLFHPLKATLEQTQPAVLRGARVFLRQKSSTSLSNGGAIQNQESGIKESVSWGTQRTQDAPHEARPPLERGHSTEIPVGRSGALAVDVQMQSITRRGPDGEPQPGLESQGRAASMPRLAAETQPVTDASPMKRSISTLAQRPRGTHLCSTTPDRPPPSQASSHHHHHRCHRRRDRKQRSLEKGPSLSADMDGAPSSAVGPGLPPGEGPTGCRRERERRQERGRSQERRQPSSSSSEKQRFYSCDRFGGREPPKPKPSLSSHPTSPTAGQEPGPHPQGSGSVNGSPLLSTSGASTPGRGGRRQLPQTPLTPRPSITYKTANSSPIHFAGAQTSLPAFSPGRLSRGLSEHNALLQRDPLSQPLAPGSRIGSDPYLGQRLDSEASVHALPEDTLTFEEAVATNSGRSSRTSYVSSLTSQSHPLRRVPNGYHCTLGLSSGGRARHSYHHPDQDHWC
# T1 sequence (Q02410 whole entry): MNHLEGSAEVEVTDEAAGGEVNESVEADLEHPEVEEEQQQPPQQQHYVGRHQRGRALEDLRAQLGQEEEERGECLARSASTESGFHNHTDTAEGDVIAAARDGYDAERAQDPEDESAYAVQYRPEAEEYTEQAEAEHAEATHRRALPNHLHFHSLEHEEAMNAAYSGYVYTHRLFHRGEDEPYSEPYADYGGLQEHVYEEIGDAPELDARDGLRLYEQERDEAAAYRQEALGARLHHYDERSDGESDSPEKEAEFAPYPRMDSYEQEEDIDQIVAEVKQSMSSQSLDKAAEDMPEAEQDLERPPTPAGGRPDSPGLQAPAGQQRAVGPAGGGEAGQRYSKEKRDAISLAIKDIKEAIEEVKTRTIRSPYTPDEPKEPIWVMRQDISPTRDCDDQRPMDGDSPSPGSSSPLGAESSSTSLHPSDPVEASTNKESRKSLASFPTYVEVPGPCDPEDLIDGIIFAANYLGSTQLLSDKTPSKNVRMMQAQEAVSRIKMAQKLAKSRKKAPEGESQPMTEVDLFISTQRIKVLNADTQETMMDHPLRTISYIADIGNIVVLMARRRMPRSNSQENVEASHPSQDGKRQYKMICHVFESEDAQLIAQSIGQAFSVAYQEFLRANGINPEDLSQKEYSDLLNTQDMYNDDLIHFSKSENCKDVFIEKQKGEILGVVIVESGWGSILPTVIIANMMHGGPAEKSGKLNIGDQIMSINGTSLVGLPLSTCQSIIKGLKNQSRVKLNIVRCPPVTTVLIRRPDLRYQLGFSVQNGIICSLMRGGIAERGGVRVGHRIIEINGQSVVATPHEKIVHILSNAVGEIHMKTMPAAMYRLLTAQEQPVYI
smiles,measurement,setting,value
CCN1C(=O)c2cccc3cccc1c23,IC50,[1],20.5 µM (active)
same,IC50,[2],> 50 µM (inactive)
same,IC50,[3],33.9 µM (active)
same,IC50,[4],32 µM (active)
Clc1ccc2c(c1)Nc1ccccc1S2,IC50,NADPH oxidase 1,254 nM (active)
O=C(CCN1C(=O)C2C3C=CC(C3)C2C1=O)N1CCN(c2ccccc2F)CC1 (centres undefined),IC50,[5],> 100 µM (inactive)
same,IC50,[6],> 100 µM (not active)
O=C(NCc1cccc(F)c1)C1CCN(S(=O)(=O)Cc2ccccc2)CC1,IC50,Aspartyl aminopeptidase,> 73.5 µM (not active)
same,IC50,Aminopeptidase N,1.71 µM (active)
same,IC50,Procathepsin L,> 59.6 µM (not active)
Cc1ccccc1S(=O)(=O)c1c(C)cc(C)n(C(C)C)c1=O,EC50,Mucolipin-3,2.44 µM (active)
same,EC50,Ion channel NompC,> 29.9 µM (not active)
O=C(OC(C(=O)Nc1cccc(C(F)(F)F)c1)c1ccccc1)C1CCCCC1 (centres undefined),EC50,[7],518 µM (active)
same,IC50,[8],7.69 µM (active)
same,IC50,[9],11.2 µM (not active)
same,EC50,[10],118 µM (active)
Cc1cc(C(=O)O)c(C)n1Cc1ccccc1,EC50,[11],> 30 µM (not active)
CC(C)Oc1nc(-c2ccc(Cl)cc2)nc2ccccc12,EC50,Streptokinase A,6.9 µM (active)
same,EC50,Streptococcus,51.2 µM (active)
N#C/C(=C/c1ccc(N2CCCCCC2)o1)c1ccc(Cl)cc1,CC50,HeLa,> 99 µM (not active)
same,IC50,[1],4.77 µM (active)
same,AC50,[12],20.4 µM (active)
same,EC50,[13],1.81 µM (active)
same,IC50,[2],> 50 µM (inactive)
same,CC50,[14],16.9 µM (active)
same,EC50,[15],> 60 µM (inconclusive)
same,AC50,INS1,8.91 µM (active)
O=C(O)CN1C(=O)/C(=C\c2cn(CC(=O)N3CCOCC3)c3ccccc23)SC1=S,IC50,Leucine aminopeptidase,13.1 µM (active)
same,EC50,[16],> 100 µM (active)
